Source: US20100075907A1, “NEUROMEDIN U RECEPTOR AGONISTS AND USES THEREOF” (priority 2006, published 2010)
Non-standard residues stand in square brackets, D forms with d. Residues, ends and D or L forms follow the SMILES beside them. No end group written: not given here. *: point of attachment. Succinimide(1-Et,3-yl) = CCN1C(=O)CC(*)C1=O; hArg = N=C(N)NCCCC[C@H](N)C(=O)O; dNle = CCCC[C@@H](N)C(=O)O

Molecular target: T1, hNMUR1 (Homo sapiens, UniProt Q9HB89)
T1 sequence (Q9HB89 1-426): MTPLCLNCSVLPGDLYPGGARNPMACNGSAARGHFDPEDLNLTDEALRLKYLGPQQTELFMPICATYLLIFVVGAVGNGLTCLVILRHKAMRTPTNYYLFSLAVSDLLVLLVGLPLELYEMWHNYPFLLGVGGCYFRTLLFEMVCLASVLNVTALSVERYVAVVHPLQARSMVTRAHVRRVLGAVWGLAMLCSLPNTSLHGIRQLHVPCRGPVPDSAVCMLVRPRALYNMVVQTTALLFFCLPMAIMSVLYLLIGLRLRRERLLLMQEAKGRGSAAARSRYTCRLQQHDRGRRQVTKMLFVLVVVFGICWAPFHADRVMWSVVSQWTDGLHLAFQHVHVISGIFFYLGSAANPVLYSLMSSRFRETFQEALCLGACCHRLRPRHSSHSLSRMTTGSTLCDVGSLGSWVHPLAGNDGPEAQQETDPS
Test: 125I-hNMU-25 binding assay, human NMUR1 membranes
Parameters: expressed in transfected cells; host or cells: HEK-293 FLP-In cells (pcDNA5); HEK-293/aeq17 lines (pIRES-puro) were also made; % inhibition of NMU-25 binding / % Activity: concentration or dose not given beside the values
Protocol: Confluent cell monolayers expressing NMU receptors (the HEK cells described above) were harvested with phosphate buffered saline, collected by centrifugation, and resuspended in membrane buffer (50 mM TrisCl pH 7.4, 5 mM MgCl2, 1× Protease Inhibitor Cocktail, 10 μM phosphoramidon). After the cell pellet was homogenized, the solution was centrifuged at 18,000 rpm for 20 minutes at 4° C. The pellet was resuspended in membrane buffer to yield a final concentration of 0.5-5 μg/μL of membrane and stored at −80° C.
Experiments were performed in assay buffer (25 mM TrisCl, pH 7.4, 10 mM MgCl2, 2 mM EDTA, 1× Protease Inhibitor Cocktail, 100 μg/mL Bacitricin, 10 μM phosphoramidon) in 200 μL volumes in a 96-well format using 2-5 μg of membrane and 0.1 nM ^125I-hNMU-25 (about 12,000 cpm/well). For non-specific binding, 1 μM hNMU-25 was added. About 5 μL of peptides were added to measure antagonist activity, and the entire reaction was incubated at room temperature with shaking for 80 minutes. The reaction was terminated by rapid filtration through 0.3% poly-ethylenimine presoaked Millipore 96-well filter plates and washed with ice-cold buffer (5 mM TrisCl pH 7.4, 10 mM MgCl2, 2.5 mM EDTA, 0.04% Triton X-100). Plates were air-dried overnight at room temperature and recovered radioactivity was determined by standard scintillation counting. IC50 values were determined using GraphPad Prism software.
Concentration-response curves and radioligand-binding data were fitted using Prism (GraphPad Software). Results are summarized below in Tables 8 and 9.

[1] = Table 8, HEK-hR1, second (binding) column pair

## CC(C)C[C@@H](NC(=O)[C@H](Cc1ccccc1)NC(=O)[C@@H](N)Cc1ccc(O)cc1)C(=O)N[C@@H](Cc1c[nH]c2ccccc12)C(=O)N[C@@H](CCCNC(=N)N)C(=O)N1CCC[C@H]1C(=O)N[C@@H](CCCNC(=N)N)C(=O)N[C@@H](CC(N)=O)C(N)=O [Agonist B, YF-(D-L)-WRPRN-CONH2] (H-YF[dL]WRPRN-NH2)
Table 8, HEK-hR1, binding
  % Activity: 96%

## C[C@@H](NC(=O)[C@H](Cc1ccccc1)NC(=O)[C@@H](N)Cc1ccc(O)cc1)C(=O)N[C@@H](Cc1c[nH]c2ccccc12)C(=O)N[C@@H](CCCNC(=N)N)C(=O)N1CCC[C@H]1C(=O)N[C@@H](CCCNC(=N)N)C(=O)N[C@@H](CC(N)=O)C(N)=O [Agonist D, YF-(D-A)-WRPRN-CONH2] (H-YF[dA]WRPRN-NH2; N-terminus assumed)
Table 8, HEK-hR1, binding
  % Activity: 100%

## CC(=O)N[C@@H](Cc1ccccc1)C(=O)N[C@H](CC(C)C)C(=O)N[C@@H](Cc1c[nH]c2ccccc12)C(=O)N[C@@H](CCCNC(=N)N)C(=O)N1CCC[C@H]1C(=O)N[C@@H](CCCNC(=N)N)C(=O)N[C@@H](CC(N)=O)C(N)=O [Agonist E, Ac-F-(D-L)-WRPRN-CONH2] (Ac-F[dL]WRPRN-NH2)
Table 8, HEK-hR1, binding
  % Activity: 93%

## CC(C)C[C@@H](NC(=O)[C@H](Cc1ccccc1)NC(=O)[C@H](Cc1ccc(O)cc1)NC(=O)CNC(=O)[C@H](CCCNC(=N)N)NC(=O)[C@H](CO)NC(=O)[C@H](CCC(N)=O)NC(=O)[C@H](CO)NC(=O)[C@H](C)NC(=O)[C@H](Cc1ccccc1)NC(=O)[C@@H]1CCCN1C(=O)[C@H](CO)NC(=O)[C@H](CCC(N)=O)NC(=O)[C@H](Cc1ccccc1)NC(=O)[C@H](CCC(=O)O)NC(=O)[C@H](CCC(=O)O)NC(=O)[C@H](CC(=O)O)NC(=O)[C@@H](NC(=O)[C@H](CCCNC(=N)N)NC(=O)[C@@H](N)Cc1ccccc1)C(C)C)C(=O)N[C@@H](Cc1c[nH]c2ccccc12)C(=O)N[C@@H](CCCNC(=N)N)C(=O)N1CCC[C@H]1C(=O)N[C@@H](CCCNC(=N)N)C(=O)N[C@@H](CC(N)=O)C(N)=O [Agonist H] (H-FRVDEEFQSPFASQSRGYF[dL]WRPRN-NH2; N-terminus assumed)
Table 8, HEK-hR1, binding
  % Activity: 93%
binding, human R1
  IC50: 1.1 nM
Human R1
  % inhibition of NMU-25 binding: 93%

## CC(C)C[C@H](NC(=O)[C@H](Cc1c[nH]c2ccccc12)NC(=O)[C@@H](N)Cc1ccccc1)C(=O)N[C@@H](Cc1ccccc1)C(=O)N[C@@H](CCCNC(=N)N)C(=O)N1CCC[C@H]1C(=O)N[C@@H](CCCCNC(=N)N)C(=O)N[C@@H](CC(N)=O)C(N)=O [Agonist I, FWLFRP-(Harg)-N-CONH2] (H-FWLFRP[hArg]N-NH2)
Table 9, HEK-hR1, binding
  % Activity: 23%
  IC50: > 1000 nM

## CC(C)C[C@H](NC(=O)[C@H](Cc1c[nH]c2ccccc12)NC(=O)[C@@H](N)Cc1ccccc1)C(=O)N[C@@H](Cc1ccccc1)C(=O)N[C@@H](CCCNC(=N)N)C(=O)N[C@@H](C)C(=O)N[C@@H](CCCCNC(=N)N)C(=O)N[C@@H](CC(N)=O)C(N)=O [Agonist J, FWLFRA-(Harg)-N-CONH2] (H-FWLFRA[hArg]N-NH2)
Table 9, HEK-hR1, binding
  % Activity: 34%
  IC50: > 1000 nM

## CCCC[C@@H](NC(=O)[C@H](CCCNC(=N)N)NC(=O)[C@H](C)NC(=O)[C@H](CCCNC(=N)N)NC(=O)[C@H](Cc1ccccc1)NC(=O)[C@H](CC(C)C)NC(=O)[C@H](Cc1ccccc1)NC(=O)[C@@H](N)Cc1c[nH]c2ccccc12)C(N)=O [Agonist K, WFLFRAR-(D-Nle)-CONH2] (H-WFLFRAR[dNle]-NH2)
Table 9, HEK-hR1, binding
  % Activity: 25%
  IC50: > 1000 nM

## CC(C)C[C@H](NC(=O)[C@H](Cc1c[nH]c2ccccc12)NC(=O)[C@H](Cc1ccccc1)NC(=O)CNC(=O)[C@H](CCCNC(=N)N)NC(=O)[C@H](CO)NC(=O)[C@H](CCC(N)=O)NC(=O)[C@H](CO)NC(=O)[C@H](C)NC(=O)[C@H](Cc1ccccc1)NC(=O)[C@@H]1CCCN1C(=O)[C@H](CO)NC(=O)[C@H](CCC(N)=O)NC(=O)[C@H](Cc1ccccc1)NC(=O)[C@H](CCC(=O)O)NC(=O)[C@H](CCC(=O)O)NC(=O)[C@H](CC(=O)O)NC(=O)[C@@H](NC(=O)[C@H](CCCNC(=N)N)NC(=O)[C@@H](N)Cc1ccccc1)C(C)C)C(=O)N[C@@H](Cc1ccccc1)C(=O)N[C@@H](CCCNC(=N)N)C(=O)N1CCC[C@H]1C(=O)N[C@@H](CCCCNC(=N)N)C(=O)N[C@@H](CC(N)=O)C(N)=O [Agonist O] (H-FRVDEEFQSPFASQSRGFWLFRP[hArg]N-NH2; N-terminus assumed)
Table 9, HEK-hR1, binding
  % Activity: 64%
  IC50: 400 nM

## CC(C)C[C@H](NC(=O)[C@H](Cc1c[nH]c2ccccc12)NC(=O)[C@H](Cc1ccccc1)NC(=O)CNC(=O)[C@H](CCCNC(=N)N)NC(=O)[C@H](CO)NC(=O)[C@H](CCC(N)=O)NC(=O)[C@H](CO)NC(=O)[C@H](C)NC(=O)[C@H](Cc1ccccc1)NC(=O)[C@@H]1CCCN1C(=O)[C@H](CO)NC(=O)[C@H](CCC(N)=O)NC(=O)[C@H](Cc1ccccc1)NC(=O)[C@H](CCC(=O)O)NC(=O)[C@H](CCC(=O)O)NC(=O)[C@H](CC(=O)O)NC(=O)[C@@H](NC(=O)[C@H](CCCNC(=N)N)NC(=O)[C@@H](N)Cc1ccccc1)C(C)C)C(=O)N[C@@H](Cc1ccccc1)C(=O)N[C@@H](CCCNC(=N)N)C(=O)N[C@@H](C)C(=O)N[C@@H](CCCCNC(=N)N)C(=O)N[C@@H](CC(N)=O)C(N)=O [Agonist P] (H-FRVDEEFQSPFASQSRGFWLFRA[hArg]N-NH2; N-terminus assumed)
Table 9, HEK-hR1, binding
  % Activity: 1%
  IC50: > 1000 nM

## CCCC[C@@H](NC(=O)[C@H](CCCNC(=N)N)NC(=O)[C@@H]1CCCN1C(=O)[C@H](CCCNC(=N)N)NC(=O)[C@H](Cc1ccccc1)NC(=O)[C@H](CC(C)C)NC(=O)[C@H](Cc1c[nH]c2ccccc12)NC(=O)[C@H](Cc1ccccc1)NC(=O)CNC(=O)[C@H](CCCNC(=N)N)NC(=O)[C@H](CO)NC(=O)[C@H](CCC(N)=O)NC(=O)[C@H](CO)NC(=O)[C@H](C)NC(=O)[C@H](Cc1ccccc1)NC(=O)[C@@H]1CCCN1C(=O)[C@H](CO)NC(=O)[C@H](CCC(N)=O)NC(=O)[C@H](Cc1ccccc1)NC(=O)[C@H](CCC(=O)O)NC(=O)[C@H](CCC(=O)O)NC(=O)[C@H](CC(=O)O)NC(=O)[C@@H](NC(=O)[C@H](CCCNC(=N)N)NC(=O)[C@@H](N)Cc1ccccc1)C(C)C)C(N)=O [Agonist Q] (H-FRVDEEFQSPFASQSRGFWLFRPR[dNle]-NH2)
Table 9, HEK-hR1, binding
  % Activity: 16%
  IC50: > 1000 nM

## CCN1C(=O)CC(SC[C@H](NC(C)=O)C(=O)N[C@@H](Cc2ccccc2)C(=O)N[C@@H](CCCNC(=N)N)C(=O)N[C@H](C(=O)N[C@@H](CC(=O)O)C(=O)N[C@@H](CCC(=O)O)C(=O)N[C@@H](CCC(=O)O)C(=O)N[C@@H](Cc2ccccc2)C(=O)N[C@@H](CCC(N)=O)C(=O)N[C@@H](CO)C(=O)N2CCC[C@H]2C(=O)N[C@@H](Cc2ccccc2)C(=O)N[C@@H](C)C(=O)N[C@@H](CO)C(=O)N[C@@H](CCC(N)=O)C(=O)N[C@@H](CO)C(=O)N[C@@H](CCCNC(=N)N)C(=O)NCC(=O)N[C@@H](Cc2ccc(O)cc2)C(=O)N[C@@H](Cc2ccccc2)C(=O)N[C@H](C)C(=O)N[C@@H](Cc2c[nH]c3ccccc23)C(=O)N[C@@H](CCCNC(=N)N)C(=O)N2CCC[C@H]2C(=O)N[C@@H](CCCNC(=N)N)C(=O)N[C@@H](CC(N)=O)C(N)=O)C(C)C)C1=O (stereo partly shown) [NMU13] (Ac-C(Succinimide(1-Et,3-yl))FRVDEEFQSPFASQSRGYF[dA]WRPRN-NH2)
Human R1
  % inhibition of NMU-25 binding: 100%

## CC(C)C[C@H](NC(=O)[C@H](Cc1ccccc1)NC(=O)[C@@H](N)Cc1ccc(O)cc1)C(=O)N[C@@H](Cc1ccccc1)C(=O)N[C@@H](CCCNC(=N)N)C(=O)N1CCC[C@H]1C(=O)N[C@@H](CCCNC(=N)N)C(=O)N[C@@H](CC(N)=O)C(N)=O [NMU-8, reference compound]
Table 9, HEK-hR1, binding
  % Activity: 100%

## Ac-FFRPRN-NH2 [Agonist F, Ac-FFRPRN-CONH2]
Table 8, HEK-hR1, binding
  % Activity: 30%
[1]
  IC50: > 1000 nM

## FALFRPRN-NH2 [Agonist N]
Table 9, HEK-hR1, binding
  % Activity: 38.4%
  IC50: > 1000 nM

## H-FRVDEEFQSPFASQSRGYFLFRPRN-NH2 [hNMU-25, reference compound]
Table 9, HEK-hR1, binding
  % Activity: 100%
binding, human R1
  IC50: 0.14 nM

## H-FRVDEEFQSPFASQSRGYFWRPRN-NH2 [Agonist G]
Table 8, HEK-hR1, binding
  % Activity: 97%

## H-FWLFRARN-NH2 [Agonist L]
Table 9, HEK-hR1, binding
  % Activity: 0%
  IC50: > 1000 nM

## H-YFGWRPRN-NH2 [Agonist C]
Table 8, HEK-hR1, binding
  % Activity: 100%

## WALFRARN-NH2 [Agonist M]
Table 9, HEK-hR1, binding
  % Activity: 0%
  IC50: > 1000 nM

## YFWRPRN-NH2 [Agonist A, YFWRPRN-CONH2]
Table 8, HEK-hR1, binding
  % Activity: 94%
[1]
  IC50: 10 nM
